Data set [1] has as its system CYP6CM1 from Bemisia tabaci. Description: Inhibition of recombinant oxidase enzyme (P450) CYP6CM1, 7-ethoxycoumarin O-deethylation. The settings on record: for inhibition activity compared with PBO: CYP6CM1, statement in text; for Bemisia tabaci CYPCM1 percentage of activity remaining: recombinant enzyme 50 μL + 3 μL of 10 mM stock in acetone, 10 min incubation, 7-ethoxycoumarin. As for the experimental part: (§1) Ability of the synergists of the invention to inhibit oxidative enzymes (P450), a major mechanism conferring resistance to xenobiotics, was measured using recombinant enzymes corresponding to CYP6CY3 from Myzus persicae and CYP6CM1 from Bemisia tabaci.
(§2) The following synergists were tested in comparison with piperonyl butoxide (PBO): • 5-n-butyl-6-((prop-2-ynyloxy)methyl)benzo[d][1,3]dioxole the compound prepared in Example 2 • 5-n-hexyl-6-((prop-2-ynyloxy)methyl)benzo[d][1,3]dioxole the compound prepared in Example 1 CYP6CM1
Substrate used was 7-ethoxycoumarin for inhibition assays as described by Ulrich and Weber (1972) and adapted to microplate format as described by De Sousa et al. (1995).
For inhibition assays, stock solutions of the compounds of Example 1 and Example 2 (10 mM) were prepared in acetone. Diluted recombinant enzyme (50 μL) was mixed with 3 μL of the above mentioned compound stock solutions, with acetone only used as a control. After 10 min incubation at room temperature, 80 μL of 0.125 mM 7-ethoxycoumarin was added, followed by 10 μL 9.6 mM NADPH (nicotinamide adenine dinucleotide phosphate) in 0.1 M sodium phosphate, pH 7.8, and O-deethylation activity monitored as above. A PBO solution (10 mM) was prepared in the same way as a comparison.

A further data set deals with Blattella germanica. The data set is described as follows: Contact test on treated glass vials, synergist with cypermethrin. The class given is in vivo. How it is done:
Laboratory bred B. germanica species, mixed ages (pre-immaginal and imagoes) and mixed sex were assayed for the test.
An insecticide stock solution was prepared with 150 μL of cypermethrin commercial formulation and diluted to 15 μL/mL with technical acetone to a final volume of 10 mL. The solution contained 450 μg/mL of cypermethrin per liter of insecticidal solution
Stock solution of the compounds of Example 1 and Example 2 were prepared dissolving around 10 mg of EC formulations containing compounds of the Example 1 and Example 2 in technical acetone to have a final concentration of 1.365 μg/mL.
Stock solution (1650 μL) was diluted to 2250 μL with acetone or with stock of insecticide in acetone to have respectively a final concentration of 1 g/L of synergist (as active ingredient) or 0.12 g/L of cypermethrin+1 g/L of the compounds of Example 1 and Example 2. Insecticide alone was prepared adding 600 μL of stock solution to 1650 μL of acetone.
Glass vials (internal surface 35 cm^2) were treated with 350 μL of insecticide solution and allowed to dry in a fume hood on a vial rotator and used as soon as the acetone was fully evaporated.
B. germanica specimens were introduced singly in vials. 20 specimens were tested for each combination of product. The exposure time to product residues was 30 minutes. After this duration the specimens were transferred to an untreated vial ad provided with food and water.
In parallel within the test, a control study has been set up with the same conditions and methods using acetone only treated vials.
The test conditions were as follows: • temperature: 22-24° C. during knock down evaluation (t: 0-30′); 26° C. during mortality assessment (t: 24 h) • relative humidity: min. 60% • light regime: 8 hrs dark/16 hrs natural illumination.
The reading intervals of the number of knocked down and the number of dead insects were: 5-10-15-20-25-30 minutes. A final reading was done 24 hours after the starting of the exposure.
The calculation model of efficacy is according to Abbott's formula (Abbott W S (1925) A method for computing the effectiveness of an insecticide. J. Econ. Entomol. 18: 265-267):
The results are reported in the following Table 5 and represent an average of 4 repetitions.

Data set [2] relates to CYP6CY3 from Myzus persicae. The data set is described as follows: Inhibition of recombinant oxidase enzyme (P450) CYP6CY3, MFC substrate. The class given is biochemical. The conditions noted are these: for inhibition activity compared with PBO: CYP6CY3, statement in text; for Myzus persicae CYP6CY3 percentage of activity remaining: recombinant enzyme 50 μL + 3 μL stock in acetone (Examples 1 and 2: 0.1 mM; PBO: 10 mM), 10 min incubation, MFC. How it is done:
as §1, §2
For CYP6CY3, 7-ethoxycoumarin was not an appropriate substrate and MFC (7-methoxy-4-trifluoromethylcoumarin) was utilised instead. MFC was dissolved in dimethylsulfoxide to make a 20 mM stock solution and diluted by the addition of 0.1 M sodium phosphate buffer, pH 7.8, to give a concentration of 0.5 mM. Recombinant enzyme (10 μL) was added to separate wells of a microplate as before and diluted to 50 μL with 0.1 M phosphate buffer pH 7.6, followed by the addition of 80 μL of 0.5 mM MFC. The microplate was incubated for 5 min at 30° C., and the reaction was initiated by the addition of 10 μL of 9.6 mM NADPH in 0.1 M sodium phosphate, pH 7.8. Enzyme activity was read in a Spectramax Gemini EM for 60 min, with readings taken every 2 min, using an excitation wavelength of 410 nm and an emission wavelength of 510 nm, with a 495 nm cut-off filter. The rate (FU min^−1) was calculated by the integrated software, Softmax Pro v.5.4. as before.
For inhibition assays, stock solutions of the compounds of Example 1 and 2 (0.1 mM) were prepared in acetone. Dilute recombinant enzyme (50 μL) was mixed with 3 μL of stock solutions, with acetone only used as a control. After 10 min incubation at room temperature, 80 μL of 0.5 mM MFC was added, followed by 10 μL of 9.6 mM NADPH in 0.1 M sodium phosphate, pH 7.8. Enzyme activity remaining was then monitored as above. A PBO solution (10 mM) was prepared in the same way as a comparison.

The record followed here is patent US10537100B2, “Substituted methylenedioxybenzyl compounds and their use as synergists” (Endura SPA, priority 2015, dated 2020).

Take `C#CCOCc1cc2c(cc1CCCC)OCO2` [Compound of Example 2, 5-n-butyl-6-((prop-2-ynyloxy)methyl)benzo[d][1,3]dioxole]: in data set [1], the “inhibition activity compared with PBO” value was “better than PBO” and the “Bemisia tabaci CYPCM1 percentage of activity remaining” value amounted to 53.48%. For the same compound, in the data set with Blattella germanica, the “synergist effect when mixed with Cypermethrin” value is “synergist effect”. Moreover, in data set [2], the “inhibition activity compared with PBO” value is recorded as “better than PBO” and the “Myzus persicae CYP6CY3 percentage of activity remaining” value was 4.04%.

Regarding `C#CCOCc1cc2c(cc1CCCCCC)OCO2` [Compound of Example 1, 5-n-hexyl-6-((prop-2-ynyloxy)methyl)benzo[d][1,3]dioxole], in data set [1], the “inhibition activity compared with PBO” value is given as “better than PBO” and the “Bemisia tabaci CYPCM1 percentage of activity remaining” value was found to be 85.19%. In the data set on Blattella germanica, the “synergist effect when mixed with Cypermethrin” value is on record as “synergist effect”. Moreover, in data set [2], the “inhibition activity compared with PBO” value is given as “better than PBO” and the “Myzus persicae CYP6CY3 percentage of activity remaining” value amounted to 8.51%.
